In article PMC5583658, “6,7-dimethoxy-1,2,3,4-tetrahydro-isoquinoline-3-carboxylic acid attenuates heptatocellular carcinoma in rats with NMR-based metabolic perturbations” (Future Science OA, 2017):

Test: Determination of M1 in rat plasma by HPLC (pharmacokinetics)
Type: in vivo, albino Wistar rats
Experimental: In a separate experiment, M1 was administered orally at 50 mg/kg bodyweight to albino Wistar rats (n = 3) and blood was collected from retro orbital plexus at 0.083, 0.25, 0.5, 1, 2, 4, 8, 12, 16, 24 and 36 h. After collection, blood was centrifuged at 10,000 rpm for 10 min, serum was separated and kept at -20°C for further HPLC determination.
A 1 mg/ml stock solution of M1 was prepared in methanol. 2, 5, 10, 25, 50, 100, 200, 250 and 500 ng/ml working solutions were prepared from the stock solution in methanol. A 100 μl of blank plasma and 100 μl working solutions were taken in separate tubes and vortexed for 30 min. After that, the tubes were centrifuged at 13,000 rpm for 5 min and supernatant was taken into another tube and dried at 40°C overnight. Later, the tubes were reconstituted with 50 μl of methanol, vortexed for 10 min and 20 μl was injected for HPLC analysis. The final concentration of working solutions were 1, 2.5, 5, 12.5, 25, 50, 100, 125 and 250 ng/ml, respectively. Quality control (QC) samples were also prepared at concentrations of 3.0, 25.0 and 200.0 ng/ml, representing low, medium and high QC samples (LQC, MQC and HQC), respectively. Triplicate calibrants and QC samples were prepared at each concentration.
For test samples, 100 μl of test plasma and 100 μl methanol were taken in a test tube and vortexed for 30 min. The other procedure was similar to previously described method.
For the determination of M1 in plasma samples, chromatographic separations were performed in a Waters 2489 HPLC (MA, USA) equipped with Spherowsorb C18, 5μ, 4.6 × 250 mm column. The flow rate was at 1.0 ml/min and the mobile phases consisted of solvent A (formic acid containing water, pH 3.4) and solvent B (methanol). The elution condition was methanol:formic acid (70:30) and the total run time was 8 min. The HPLC was run through Empower software version 2 and absorbance was measured at 230 nm wave length. The detector used for estimation was Waters 2489 UV-Vis detector. The final data was calculated using Winnonlin version 1.5.3 software.

[1] = albino Wistar, rat, single oral administration of 50 mg/kg in rats, n = 3, plasma

COc1cc2c(cc1OC)CC(C(=O)O)NC2 (stereo not shown) [M1, 6,7-dimethoxy-1,2,3,4-tetrahydro-isoquinoline-3-carboxylic acid]
AUC(0-t) (albino Wistar, rat, plasma, po, 50 mg/kg, single oral administration of 50 mg/kg in rats, n = 3, plasma, after 36 h): 2070 ng·h/mL
Cmax [1]: 178 ± 3.27 ng/mL
Tmax [1]: 4 h
half-life [1]: 6.05 h
MRT (albino Wistar, rat, single oral administration of 50 mg/kg in rats, n = 3, plasma, read-out: MRT (mean retention time)): 10.5 h
oral bioavailability (in words) (oral 50 mg/kg, rats, inferred from Cmax): good oral bioavailability
AUC0-T (single oral administration of 50 mg/kg in rats, n = 3, plasma, after 36 h, 50 mg/kg): 2056.05 ± 26.22 ng·h/mL
